Experiment [1] has as its target Aldo-keto reductase family 1 member B1 (Homo sapiens, UniProt P15121). The experiment is described as follows: Inhibition of ALR2 (unknown origin).
A short description of experiment [2]: Inhibition of rat eye lens ALR2 using DL-glyceraldehyde by measuring NADPH consumption by spectrophotometric analysis. In kind it is tissue-based.
Experiment [3] has as its target Aldo-keto reductase family 1 member A1 (Rattus norvegicus, UniProt P51635). Description: Inhibition of rat kidney ALR1 using D-glucuronate by measuring NADPH consumption by spectrophotometric analysis. In kind it is tissue-based.
For experiment [4], the species on record is Rattus norvegicus. Description: Selectivity index, ratio of IC50 for rat kidney ALR1 to IC50 for rat eye lens ALR2.

The term IC50 denotes the concentration needed to halve the response being measured. The low end stands for greater potency, the high end for weaker potency. The term pIC50 denotes the IC50 on a negative log10 scale, so that one unit is a factor of ten.

Chain of Aldo-keto reductase family 1 member A1 (P51635 whole entry, looked up): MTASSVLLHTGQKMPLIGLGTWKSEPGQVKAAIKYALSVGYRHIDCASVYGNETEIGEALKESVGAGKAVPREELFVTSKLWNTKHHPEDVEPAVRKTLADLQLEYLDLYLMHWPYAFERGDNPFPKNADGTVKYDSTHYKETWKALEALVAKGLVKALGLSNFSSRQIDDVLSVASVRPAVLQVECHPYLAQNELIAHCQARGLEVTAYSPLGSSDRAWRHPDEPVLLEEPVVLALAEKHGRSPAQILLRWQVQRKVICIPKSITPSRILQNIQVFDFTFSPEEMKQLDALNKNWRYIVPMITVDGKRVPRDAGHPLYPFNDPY

For `COc1ccc2nc(/N=C3\NC(=O)/C(=C/c4ccc(O)cc4)S3)sc2c1`, in experiment [1], the IC50 came to 1300 nM.
For `Cc1ccccc1/C=N/N1C(=O)/C(=C/c2ccc(O)cc2)SC1=S`, the IC50 was determined as 53 nM in experiment [2] and 635 nM in experiment [3]. The compound further came in with a pIC50 in experiment [2] of 7.28. Further, the Ratio IC50 in experiment [4] is 12.
In experiment [2], `CC(/C=C1\SC(=S)N(CC(=O)O)C1=O)=C\c1ccccc1` [EPALRESTAT] gave an IC50 of 250 nM and a pIC50 of 6.6.
Turning to `O=C(CN1C(=O)S/C(=C\c2ccc(O)cc2)C1=O)NO`, the IC50 in experiment [1] stood at 1790 nM.
As for `COc1ccc(/C=N/N2C(=O)/C(=C/c3ccc(O)cc3)SC2=S)cc1`, the IC50 in experiment [2] is 2150 nM; in experiment [3], above 25000 nM. For the same compound, the pIC50 in experiment [2] is recorded as 5.67. Further, the Ratio IC50 in experiment [4] was above 11.
For `O=C1/C(=C/c2ccc(O)cc2)SC(=S)N1/N=C/c1ccc(F)cc1`, in that order: 27 nM, 228 nM, 7.57 and 8.
In the case of `COC(=O)CN1C(=O)S/C(=C\c2ccc(O)cc2)C1=O`, the IC50 in experiment [1] amounted to 6180 nM.
Turning to `O=C1/C(=C/c2ccc(O)cc2)SC(=S)N1/N=C/c1ccc(O)cc1`, in experiment [2], half-maximal inhibition (IC50) was put at 22 nM and the pIC50 worked out at 7.66. Moreover, the IC50 in experiment [3] came to 116 nM. Besides, in experiment [4], the Ratio IC50 is 5.
For `O=C1/C(=C/c2ccc(O)cc2)SC(=S)N1/N=C/c1ccccc1Cl`, in that order: 149 nM, 6.83, 1760 nM and 12.
In turn, `O=C(CN1C(=O)S/C(=C\c2ccc(O)cc2)C1=O)Nc1ccccc1O` returned a 50% inhibitory concentration (IC50) in experiment [1] of 950 nM.
In experiment [2], `O=C1/C(=C/c2ccc(O)cc2)SC(=S)N1/N=C/c1ccccc1` had an IC50 of 892 nM and a pIC50 of 6.05. This compound also showed an IC50 in experiment [3] of 21100 nM. Also, in experiment [4], the Ratio IC50 worked out at 24.
Turning to `O=C1S/C(=C\c2ccc(O)cc2)C(=O)N1CC(=O)C(F)(F)F`, inhibition in experiment [1] was half-maximal at 3000 nM (IC50).
